Measured values published in ChEMBL document CHEMBL3217616, “Modular assembly of cytotoxic acetogenin mimetics by click linkage with nitrogen functionalities” (Medchemcomm, 2011).
pIC50: −log10 of the molar value.

Experiments:
[1] = tested on: K562; test: Cytotoxicity against human K562 cells after 48 hrs by CCK-8 assay; assay type: functional, cell-based; conditions: K562, 48 h
[2] = tested on: Kasumi 1; test: Cytotoxicity against human Kasumi-1 cells after 48 hrs by CCK-8 assay; assay type: functional, cell-based; conditions: Kasumi 1, 48 h
[3] = tested on: HL-60; test: Cytotoxicity against human HL60 cells after 48 hrs by CCK-8 assay; assay type: functional, cell-based; conditions: HL-60, 48 h
[4] = tested on: Jurkat; test: Cytotoxicity against human Jurkat cells after 48 hrs by CCK-8 assay; assay type: functional, cell-based
[5] = tested on: MCF7; test: Cytotoxicity against human MCF7 cells after 48 hrs by CCK-8 assay; assay type: functional, cell-based; conditions: MCF7, 48 h
[6] = Cytotoxicity against human MDA-MB-435S cells after 48 hrs by CCK-8 assay; assay type: functional, cell-based
[7] = tested on: BT-549; test: Cytotoxicity against human BT549 cells after 48 hrs by CCK-8 assay; assay type: functional, cell-based; conditions: BT-549, 48 h
[8] = tested on: BT-474; test: Cytotoxicity against human BT474 cells after 48 hrs by CCK-8 assay; assay type: functional, cell-based; conditions: BT-474, 48 h
[9] = tested on: SK-BR-3; test: Cytotoxicity against human SK-BR-3 cells after 48 hrs by CCK-8 assay; assay type: functional, cell-based; conditions: SK-BR-3, 48 h
[10] = tested on: SW-620; test: Cytotoxicity against human SW620 cells after 48 hrs by CCK-8 assay; assay type: functional, cell-based; conditions: SW-620, 48 h
[11] = tested on: U-937; test: Cytotoxicity against human U937 cells after 48 hrs by CCK-8 assay; assay type: functional, cell-based; conditions: U-937, 48 h
[12] = Cytotoxicity against human NB4 cells after 48 hrs by CCK-8 assay; assay type: functional, cell-based; conditions: NB-4, 48 h
[13] = Cytotoxicity against human NB4 cells assessed as growth inhibition at 0.2 uM after 48 hrs by CCK-8 assay; assay type: functional; conditions: NB-4, 48 h
[14] = Cytotoxicity against human NB4 cells assessed as growth inhibition at 5 to 25 uM after 48 hrs by CCK-8 assay; assay type: functional, NB-4

Row | Compound | pIC50 [1] | pIC50 [2] | pIC50 [3] | pIC50 [4] | pIC50 [5] | pIC50 [6] | pIC50 [7] | pIC50 [8] | pIC50 [9] | pIC50 [10] | pIC50 [11] | pIC50 [12] | inhibition at 0.2 µM [13] | inhibition (INH) [14]
1 | CCCCCCCCCC[C@H](O)COCCOC[C@@H](O)CC(=O)NCCCCCCCCCC1=C[C@H](C)OC1=O | 4.82 | 4.78 | 5.13 | 4.85 | < 4.60 | < 4.60 | < 4.60 | < 4.60 | < 4.60 | < 4.60 | 5.28 | 5.35 | – | –
2 | CCCCCCCCCC[C@H](O)COCCOC[C@@H](O)CCC1CCN(CCCCCCCCCC2=C[C@H](C)OC2=O)CC1 | 5.51 | 5.41 | < 4.60 | 5.92 | < 4.60 | 5.30 | 5.66 | < 4.60 | 5.10 | 5.09 | 5.36 | 5.72 | 6.2% | >70%
3 | CCCCCCCCCC[C@H](O)COCCOC[C@@H](O)CCCCCCCCCCCCC1=C[C@H](C)OC1=O | 5.57 | 5.96 | < 4.60 | 5.59 | < 4.60 | < 4.60 | 5.48 | < 4.60 | 4.66 | < 4.60 | 5.92 | 6.15 | 48.6% | >70%
4 | CCCCCCCCCC[C@H](O)COCCOC[C@@H](O)Cc1cn(CCCCCCCCCC2=C[C@H](C)OC2=O)nn1 | 5.07 | 4.75 | < 4.60 | < 4.60 | < 4.60 | < 4.60 | < 4.60 | < 4.60 | < 4.60 | < 4.60 | < 4.60 | 5.49 | – | –
